Values joined by “and” are separate entries in the source; they are usually repeats but may differ in a detail not shown here. Equal entries are not always repeated.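 Grown in 96-well plates, cells were treated for 48 hours with each compound at five concentrations. Insufficient inhibition: endpoint recorded as highest concentration tested. Abbreviation: GI50, concentration required for 50% inhibition of growth. TGI denotes the concentration required for complete inhibition of growth.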
Key:
Experiment in all cases: NCI tumour cell line growth inhibition, 48 h
COLO 205 colon = test system: COLO 205 colon
ACHN renal = test system: ACHN renal
HOP-62 NSCLC = test system: HOP-62 NSCLC
SK-OV-3 ovarian = test system: SK-OV-3 ovarian
HT29 colon = test system: HT29 colon
786-0 renal = test system: 786-0 renal
SF-295 CNS = test system: SF-295 CNS
MALME-3M melanoma = test system: MALME-3M melanoma
SNB-75 CNS = test system: SNB-75 CNS
HCC-2998 colon = test system: HCC-2998 colon

| SMILES | TGI (COLO 205 colon) | TGI (ACHN renal) | TGI (HOP-62 NSCLC) | TGI (SK-OV-3 ovarian) | TGI (HT29 colon) | TGI (786-0 renal) | TGI (SF-295 CNS) | TGI (MALME-3M melanoma) | TGI (SNB-75 CNS) | GI50 (ACHN renal) | GI50 (HOP-62 NSCLC) | GI50 (SK-OV-3 ovarian) | GI50 (HT29 colon) | GI50 (HCC-2998 colon) | TGI (HCC-2998 colon) | GI50 (786-0 renal) | GI50 (SF-295 CNS) | GI50 (MALME-3M melanoma) | GI50 (SNB-75 CNS) | GI50 (COLO 205 colon) |
| --- | --- | --- | --- | --- | --- | --- | --- | --- | --- | --- | --- | --- | --- | --- | --- | --- | --- | --- | --- | --- |
| CCN(CC)c1ccc(N=C2C=C(Cl)C(=O)c3ncccc32)c(C)c1 | 15.8 µM | 11.1 µM | 25 µM | 67.9 µM | 30.2 µM | 12.2 µM | 35.9 µM | 10.5 µM | 88.3 µM |  |  |  |  |  |  |  |  |  |  |  |
| CC1[C@@H]2CC=C3[C@H]4CCC5Cc6nc7c(nc6C[C@@]5(C)C4(O)CC(=O)[C@]32CO[C@]12OC(C)(C)CC2O)CC1CC[C@@H]2C3=C[C@H]4O[C@@]5(O[C@@](C)(CO)C[C@@H]5O)C(C)[C@@]4(O)[C@]3(C)[C@@H](O)CC2[C@]1(C)C7 (some centres not stated) | 0.00658 µM and 0.0644 µM | 0.381 µM | 0.000831 µM and 0.00257 µM |  | 0.0486 µM and 0.0623 µM | 0.0446 µM | 0.000131 µM and < 0.00036 µM | 0.142 µM and 0.0292 µM |  | 0.00257 µM | 0.000104 µM and 0.00036 µM | 0.000461 µM and 0.00249 µM | 0.000918 µM and 0.00123 µM | 0.321 µM | > 3.6 µM | 0.000142 µM | < 0.00036 µM | 0.00298 µM and 0.00369 µM | 0.00036 µM |  |
| CC(C)C(=O)[O-].CC(C)C(=O)[O-].N.N.N.N.[Co+3].[O-][Cl+3]([O-])([O-])[O-] | > 100 µM | > 100 µM | > 100 µM | > 100 µM | > 100 µM | > 100 µM | > 100 µM | > 100 µM | > 100 µM | > 100 µM | > 100 µM | > 100 µM | > 100 µM | > 100 µM | > 100 µM | > 100 µM | > 100 µM | > 100 µM | > 100 µM | > 100 µM |
| OCC(CCc1c[nH]c2ccccc12)c1c[nH]c2ccccc12 (configuration not stated) | 30.6 µM | 45.1 µM | 50.6 µM | 98.5 µM | 30.7 µM | 29.5 µM | 42.9 µM | 32.2 µM | 45.7 µM |  |  |  |  |  |  |  |  |  |  |  |
| CC(=O)[O-].[Zn].c1ccc(/C(=N\Nc2ccccn2)c2ccccn2)cc1 |  | 5.03 µM | 1.81 µM | 2.79 µM | 4.13 µM | 2.16 µM | 12.3 µM | 1.58 µM | 2.63 µM | 0.0241 µM | 0.591 µM | 0.507 µM | 1.09 µM |  | 2.07 µM | 0.366 µM | 0.46 µM |  |  |  |
| CCOC(=O)c1ccc(N2C(=O)Cc3ccccc3C2=O)cc1 |  | > 100 µM |  | > 100 µM | > 100 µM | > 100 µM | > 100 µM | > 100 µM | > 100 µM |  |  |  |  |  | > 100 µM |  |  |  |  |  |
| CCCCCCCCCCCCCCCCCCOc1ccccc1CC(=O)NCC[N+](C)(C)C |  | 49.2 µM | 6.9 µM | 35.7 µM | 26.7 µM | 78.7 µM | 38.9 µM | 94 µM | 8.9 µM | 12.9 µM | 2.32 µM | 15.4 µM | 3.09 µM | 3.15 µM | 21.9 µM | 3.57 µM | 5.09 µM | 14.8 µM | 1.98 µM |  |
| CC(=O)/C=C1\CC(=O)Nc2ccccc2N1 |  | > 100 µM |  | > 100 µM | > 100 µM | > 100 µM | > 100 µM | > 100 µM | > 100 µM |  |  |  |  |  | > 100 µM |  |  |  |  |  |
| COc1ccc2c(c1)c(-c1ccc(-c3cn(C)c4ccc(OC)cc34)[nH]1)cn2C | 4.74 µM | 3.54 µM | 33.5 µM | 20.9 µM | 42 µM | 36.1 µM | 45.7 µM | 9.03 µM | 6.26 µM | 1.91 µM | 10.1 µM | 3.19 µM | 9.38 µM |  |  | 12.2 µM | 4.59 µM | 2.64 µM | 2.25 µM | 1.92 µM |
| O=C(NC1C2CC3CC(C2)CC1C3)/C(Cl)=C1/Sc2ccccc2NC1=O (configuration not stated) | > 100 µM | > 100 µM | > 100 µM |  | > 100 µM | > 100 µM | > 100 µM | > 100 µM | > 100 µM |  |  |  |  |  | > 100 µM |  |  |  |  |  |
| N#Cc1nc2c(S(=O)(=O)c3ccccc3)c(N)n(Cc3ccc(Cl)cc3)c2nc1C#N | > 50 µM | 13 µM | > 50 µM | 29.3 µM |  | 15.6 µM | > 50 µM |  |  | 4.23 µM | > 50 µM | 9.9 µM |  | 3.6 µM | 10.8 µM | 7.08 µM | 14.7 µM |  |  | 17.8 µM |
| COc1cccc(N=N/C(=N\NC(=O)c2cc(Br)ccc2O)c2ccc(N(CCC#N)CCC#N)cc2OC)c1 | 106 µg/mL | > 150 µg/mL |  | > 150 µg/mL | > 150 µg/mL | > 150 µg/mL | > 150 µg/mL | 142 µg/mL | 69.5 µg/mL | 56.8 µg/mL |  | 72.6 µg/mL | 30 µg/mL | 21.3 µg/mL | 73.2 µg/mL | 79.2 µg/mL | 52.6 µg/mL | 57.7 µg/mL | 19.6 µg/mL | 33.1 µg/mL |
| Cc1ccc(C2=C(c3ccc(C)cc3)C(c3ccc(C)cc3)=C(c3ccc(C)cc3)C2=O)cc1 |  | > 100 µM | > 100 µM | > 100 µM | > 100 µM | > 100 µM | > 100 µM | > 100 µM | > 100 µM |  |  |  |  |  |  |  |  |  |  |  |
| COc1cc(NC(=O)NCc2ccco2)ccc1-c1ccc(NC(=O)NCc2ccco2)cc1OC | > 100 µM | > 100 µM | 11.3 µM | 19.7 µM |  | 11.4 µM | 14.4 µM | 5.56 µM | 4 µM | 2.84 µM | 1.94 µM | 2.49 µM |  | 7.97 µM | > 100 µM | 2.35 µM | 1.25 µM | 1.65 µM | 1.02 µM | 3.1 µM |
| c1ccc(B2OCC(C3OB(c4ccccc4)OC4COB(c5ccccc5)OC43)O2)cc1 (configuration not stated) | > 100 µM | > 100 µM | > 100 µM | > 100 µM | > 100 µM | > 100 µM | > 100 µM | > 100 µM | > 100 µM |  |  |  |  |  |  |  |  |  |  |  |
| Clc1cc(-c2ccccc2)nc2ccccc12 | 37.5 µM | > 100 µM | > 100 µM | > 100 µM | > 100 µM | > 100 µM | > 100 µM | > 100 µM | 83.5 µM |  |  |  |  |  |  |  |  |  |  |  |

Reference: PubChem BioAssay (NCI)
